Laboratory results: patent publication US7524840B2, “7,8-disubstituted pyrazolobenzodiazepines” (Hoffmann-La Roche Inc., priority 2004, dated 2009)

Columns and labels:
H460a = H460a cell-based MTT proliferation assay; conditions: 120 h, 5 days post addition of test compound, read-out: Antiproliferative Activity H460a Assay IC90
Method: The H460a cell line was purchased from (ATCC; Rockville, Md.) and was grown in the medium recommended by ATCC. For analysis of the effect of the test compounds on growth of these cells, the cells were plated at 150 cells per well in a 96-well tissue culture plate, and were incubated overnight at 37° C. with 5% CO2. The next day, the test compounds were dissolved in 100% dimethyl sulfoxide (DMSO) to yield a 10 mM stock solution. Each compound was diluted with sterile medium to 1 mM in a sufficient quantity to yield a final concentration of 120 μM. The compounds were then serially diluted in medium with 1.2% DMSO. One-fourth final volume of the diluted compounds was transferred to 96 well plates. Test compounds were assayed in duplicate. […] The plates were returned to the incubator, and 5 days post addition of test compound, were analyzed as described below. […] Absorbencies were read in a microtiter plate reader (Molecular Dynamics) at a wavelength of 570 nm with a 650 nm reference. Percent inhibition was calculated by subtracting the absorbance of the blank (no cell) wells from all wells, then subtracting the division of the average absorbance of each test duplicate by the average of the controls from 1.00. Inhibitory concentrations (IC50) were determined from the linear regression of a plot of the logarithm of the concentration versus the percent inhibition.

Cyclin E/CDK2 = target: T1, Cyclin E/CDK2 (Homo sapiens, UniProt P24941); assay: CDK2 Flash Plate Assay (Rb phosphorylation, 33P-ATP); assay type: biochemical
T1 construct: made in house; host or cells: insect cells
Method: To determine inhibition of CDK2 activity, purified recombinant retinoblastoma (Rb) protein was coated on 96 well FlashPlates (New England Nuclear, Boston, Mass.). […] Recombinant active human Cyclin E/CDK2 complexes were partially purified from extracts of insect cells. […] Plates were incubated for 25 minutes at room temperature with shaking, then washed and counted in the Topcount scintillation counter (Packard Instrument Co., Downers Grove, Ill.). Dilutions of test compounds were tested in duplicate in each assay. The percent inhibition of Rb phosphorylation, which is a measure of the inhibition of CDK2 activity, was determined according to the following formula:
[formula] where “test compound” refers to the average counts per minute of the test duplicates, “nonspecific” refers to the average counts per minute when no Cyclin E/CDK2 was added, and “total” refers to the average counts per minute when no compound was added.

FGF-stimulated HUVEC = FGF-stimulated HUVEC proliferation assay (BrdU); assay type: cell-based; conditions: Homo sapiens, BrdU labeling, FGF 5 ng per mL, 24 hour exposure, read-out: Antiproliferative Activity FGF-stimulated HUVEC Assay IC50
Method: The antiproliferative activity of test compounds of this invention in cell-based assays was evaluated by BrdU assay using the BrdU kit (Roche Biochemicals 1-647-229). Human umbilical vein endothelial cells (HUVEC, Clonetics CC-2519) were cultured in EGM-2 (Clonetics CC-3162) medium and seeded at 10000 cells per well in a volume of 200 μL of EGM-2 (Clonetics CC-3162) media in a 96-well flat bottom plates (Costar 3595) overnight. After 24 hours of growth at 37° C. with 5% CO2, the incubation media was removed slowly by aspiration, and the content of each well was washed with 300 μL pre-warmed EBM-2 (Clonetics CC-3156) containing 50 μg per mL of gentamycin and 50 ng per mL of amphotercin-B (Clonetics CC-4083). Subsequently, the remaining media was again aspirated and replaced with 160 μL per well of serum starvation media (EBM-2 supplemented with 1% heat inactivated FBS (Clonetics CC-4102), 50 μg per mL gentamycin and 50 ng per mL of amphotercin-B (Clonetics CC-4083), 10 units per mL of Wyeth-Ayerst heparin (NDC0641-0391-25), and 2 mM L-glutamine (GIBCO 25030-081). After serum starving the cells for 24 hours, 20 μL of test compound at 10× test concentration in serum starvation medium with 2.5% DMSO was added to the appropriate wells. The control wells contained 20 μL of serum starvation medium with 2.5% DMSO. Plates were returned to the incubator for 2 hours. After pre-incubating the cells with the test compounds for 2 hours, 20 μL of growth factors at 10X assay concentration diluted in serum starvation media, FGF at 50 ng per mL, or VEGF (R&D systems 293-VE) at 200 ng per mL were added. The final concentration of FGF in the assay was 5 ng per mL and the final concentration of VEGF in the assays was 20 ng per mL. The growth factor free control wells had 20 μL per well of serum starvation media with the same amount of BSA as the wells with growth factors. The plates were returned to the incubator for an additional 22 hours.
After 24 hour exposure to the test compounds, the cells were labeled with BrdU (Roche Biochemicals 1-647-229), by adding 20 μL per well of BrdU labeling reagent that has been diluted (1:100) in serum starvation medium. The plates were then returned to the incubator for 4 hours. The labeling medium was removed by draining the medium onto paper towels. […] The plates were read at 450 nm with reference wavelength of 650 nm. The percent inhibition for each test compound was calculated by subtracting the absorbency of the blank (no cells) wells from all wells, then subtracting the division of the average absorbency of each test duplicate by the average of the controls from 1. […] The IC50 is determined from the linear regression of a plot of the logarithm of the concentration versus percent inhibition.

MDA-MB-435 = MDA-MB-435 cell-based MTT proliferation assay; conditions: Homo sapiens, MDA-MB-435, 120 h, 5 days post addition of test compound, read-out: IC50 for inhibition in the MDA-MB-435 cell-based assay
Method: (§1) The estrogen receptor negative epithelial breast carcinoma line (MDA-MB-435) was purchased from American Type Cell Culture Collection (ATCC; Rockville, Md.) and was grown in the medium recommended by ATCC. For analysis of the effect of the test compounds on growth of these cells, the cells were plated at 2000 cells per well in a 96-well tissue culture plate, and were incubated overnight at 37° C. with 5% CO2. The next day, the test compounds were dissolved in 100% dimethyl sulfoxide (DMSO) to yield a 10 mM stock solution. Each compound was diluted with sterile medium to 1 mM in a sufficient quantity to yield a final concentration of 120 μM. The compounds were then serially diluted in medium with 1.2% DMSO. […] The plates were returned to the incubator, and 5 days post addition of test compound, were analyzed as described below.
(§2) 3-(4,5-Dimethylthiazole-2-yl)-2,5-diphenyl-2H-tetrazolium bromide (thiazolyl blue; MTT) was added to each well to yield a final concentration of 1 mg/mL. […] Absorbencies were read in a microtiter plate reader (Molecular Dynamics) at a wavelength of 570 nm with a 650 nm reference. Percent inhibition was calculated by subtracting the absorbance of the blank (no cell) wells from all wells, then subtracting the division of the average absorbance of each test duplicate by the average of the controls from 1.00. […]

SW480 = SW480 (colon) cell-based MTT proliferation assay; conditions: Homo sapiens, SW480, 144 h, 6 days post addition of the test compound, read-out: IC50 for inhibition in the SW480 (colon) based assay
Method: as §1, §2

SMILES | IC90 (H460a) [µM] | IC50 (Cyclin E/CDK2) [µM] | IC50 (FGF-stimulated HUVEC) [µM] | IC50 (MDA-MB-435) [µM] | IC50 (SW480) [µM]
COc1cc2c(cc1C#N)C(c1ccccc1Cl)=Nc1c(n[nH]c1C)N2 [IVb, 5-(2-chlorophenyl)-7-cyano-1,2-dihydro-8-methoxy-3-methyl-pyrazolo[3,4-b][1,4]benzodiazepine] | 0.118 | 0.184 | 0.005 |  | 
Cc1cc2c(cc1C)C(c1ccccc1Cl)=NCC(=O)N2 [Iw, 5-(2-chlorophenyl)-1,3-dihydro-7,8-dimethyl-2H-1,4-benzodiazepin-2-one] |  |  |  | 0.95 | 0.95
